We go through 51 molecules from patent US8895585B2, “Nicotinamide derivative or salt thereof” (FUJIFILM Corporation, priority 2010, dated 2014).

By IC50 is commonly meant the point on the concentration scale where inhibition reaches its midpoint.

The test concerns the target T1, glutathione S-transferase (GST)-fused full-length human Syk protein (Homo sapiens, UniProt P43405).
T1 construct: (GST)-fused full-length human Syk protein; GST (glutathione S-transferase); purchased Carna Biosciences
In words: Syk enzyme assay. It counts as biochemical. The settings on record: Syk enzyme assay, Test Example 1; read-out: IC50 of Syk-inhibitory activity. The gist of the method: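 IC50 values come from a time-resolved FRET readout (615 and 665 nm) of substrate phosphorylation, measured after an EDTA stop and 1 h antibody binding. The kinase reaction ran 40 min at room temperature with 27 μM ATP and 0.4 μM biotin-peptide, following a 15 min compound preincubation with baculovirus-made GST-full-length human Syk.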
With `CCOCCOc1ccc2cc(Nc3nc(NC4CCCCC4N)c(F)cc3C(N)=O)ccc2n1` (stereo not drawn) [Example 002-107], the IC50 is less than 10 nM. Then `CCCCOCCOc1ccc2cc(Nc3nc(NC4CCCCC4N)c(F)cc3C(N)=O)ccc2n1` (stereo not drawn) [Example 002-108], with 10 to 50 nM; and `CC(C)COCCOc1ccc2cc(Nc3nc(NC4CCCCC4N)c(F)cc3C(N)=O)ccc2n1` (stereo not drawn) [Example 002-109], with 10 to 50 nM; and `CCCCOCCOCCOc1ccc2cc(Nc3nc(NC4CCCCC4N)c(F)cc3C(N)=O)ccc2n1` (stereo not drawn) [Example 002-111], with 10 to 50 nM. In the case of `NC(=O)c1cc(F)c(NC2CCCCC2N)nc1Nc1ccc2nc(OCC3CCCO3)ccc2c1` (stereo not drawn) [Example 002-112] it was less than 10 nM; in that of `COCCn1c(=O)ccc2cc(Nc3nc(NC4CCCCC4N)c(F)cc3C(N)=O)cnc21` (stereo not drawn) [Example 002-116], 50 to 100 nM; in that of `COc1nc2ccc(Nc3nc(NC4CCCCC4N)c(F)cc3C(N)=O)cc2nc1OC` (stereo not drawn) [Example 002-119], less than 10 nM.

As for `CCOc1nc2ccc(Nc3nc(NC4CCCCC4N)c(F)cc3C(N)=O)cc2nc1OCC` (stereo not drawn) [Example 002-120], the IC50 was less than 10 nM. In the case of `COCCOc1nc2ccc(Nc3nc(NC4CCCCC4N)c(F)cc3C(N)=O)cc2nc1OCCOC` (stereo not drawn) [Example 002-121] it was 100 to 1000 nM; in that of `CN1CCOc2nc3ccc(Nc4nc(NC5CCCCC5N)c(F)cc4C(N)=O)cc3nc21` (stereo not drawn) [Example 002-122], less than 10 nM; in that of `CCc1nc2ccc(Nc3nc(NC4CCCCC4N)c(F)cc3C(N)=O)cc2nc1CC` (stereo not drawn) [Example 002-124], less than 10 nM.

In the case of `CC1CN(c2ccc(Nc3nc(NC4CCCCC4N)c(F)cc3C(N)=O)cn2)CC(C)O1` (stereo not drawn) [Example 002-127], the concentration for half-maximal inhibition (IC50) was in the range of 10 to 50 nM.

In the case of `NCCNCCNc1nc(Nc2ccc3ncccc3c2)c(C(N)=O)cc1F` [Example 002-128], the half-inhibitory concentration (IC50) lay within 100 to 1000 nM. `NCCNCCNc1nc(Nc2ccnc(-n3nccn3)c2)c(C(N)=O)cc1F` [Example 002-129]: the IC50 is 100 to 1000 nM. In the case of `NCCNCCNc1nc(Nc2ccnc(-n3cncn3)c2)c(C(N)=O)cc1F` [Example 002-130] it was 100 to 1000 nM; in that of `COc1ccccc1-c1cc(Nc2nc(NC3CCCCC3N)c(F)cc2C(N)=O)ccn1` (stereo not drawn) [Example 002-132], 10 to 50 nM; in that of `NC(=O)c1cc(F)c(NC2CCCCC2N)nc1Nc1ccnc(-c2ccc(F)cc2F)c1` (stereo not drawn) [Example 002-133], less than 10 nM. In the case of `Cc1ncc(Nc2nc(NC3CCCCC3N)c(F)cc2C(N)=O)cc1-n1cccn1` (stereo not drawn) [Example 002-135] it was 10 to 50 nM. Then `COc1ccc(-c2cc(Nc3nc(NC4CCCCC4N)c(F)cc3C(N)=O)ccn2)c(OC)c1` (stereo not drawn) [Example 002-136], with 50 to 100 nM; and `Cc1ncc(Nc2nc(NC3CCCCC3N)c(F)cc2C(N)=O)cc1-n1cncn1` (stereo not drawn) [Example 002-138], with 50 to 100 nM; and `NC(=O)c1cc(F)c(NC2CCCCC2N)nc1Nc1ccc2cc(-n3cccn3)cnc2c1` (stereo not drawn) [Example 002-143], with less than 10 nM. Consider `NC(=O)c1cc(F)c(NC2CCCCC2N)nc1Nc1ccnc(-c2cc(F)ccc2F)c1` (stereo not drawn) [Example 002-145], for which the IC50 is less than 10 nM.

Regarding `NC(=O)c1cc(F)c(NC2CCCCC2N)nc1Nc1ccnc(-c2cccc(Cl)c2F)c1` (stereo not drawn) [Example 002-146], the IC50 was less than 10 nM. Then `NC(=O)c1cc(F)c(NC2CCCCC2N)nc1Nc1ccnc(-c2cc(Cl)ccc2F)c1` (stereo not drawn) [Example 002-147], with less than 10 nM. In the case of `COc1ncc(Nc2nc(NC3CCCCC3N)c(F)cc2C(N)=O)cc1-c1ccccc1` (stereo not drawn) [Example 002-148] it was 10 to 50 nM; in that of `COc1ncc(Nc2nc(NC3CCCCC3N)c(F)cc2C(N)=O)cc1-c1ccccc1F` (stereo not drawn) [Example 002-149], 10 to 50 nM. Then `COc1ncc(Nc2nc(NC3CCCCC3N)c(F)cc2C(N)=O)cc1-c1ccco1` (stereo not drawn) [Example 002-150], with 10 to 50 nM. Regarding `COc1ncc(Nc2nc(NC3CCCCC3N)c(F)cc2C(N)=O)cc1-c1ccoc1` (stereo not drawn) [Example 002-151], the 50% inhibitory concentration (IC50) is 10 to 50 nM.

Consider `COc1ncc(Nc2nc(NC3CCCCC3N)c(F)cc2C(N)=O)cc1C` (stereo not drawn) [Example 002-152], for which the IC50 lay in the range of 10 to 50 nM. Then `COc1ncc(Nc2nc(NC3CCCCC3N)c(F)cc2C(N)=O)cc1C1CC1` (stereo not drawn) [Example 002-153], with 10 to 50 nM; and `COc1ncc(Nc2nc(NC3CCCCC3N)c(F)cc2C(N)=O)cc1-n1cccn1` (stereo not drawn) [Example 002-154], with 10 to 50 nM. In the case of `NC(=O)c1cc(F)c(NC2CCCCC2N)nc1Nc1ccc(N2CCCC2=O)nc1` (stereo not drawn) [Example 002-156] it was 50 to 100 nM; in that of `NC(=O)c1cc(F)c(NC2CCCCC2N)nc1Nc1ccc(N2CCCCC2=O)nc1` (stereo not drawn) [Example 002-157], 100 to 1000 nM; in that of `CC1(C)Oc2cccnc2N(c2ccc(Nc3nc(NC4CCCCC4N)c(F)cc3C(N)=O)cn2)C1=O` (stereo not drawn) [Example 002-159], 100 to 1000 nM. In the case of `NC(=O)c1cc(F)c(NC2CCCCC2N)nc1Nc1ccc(-n2nccn2)nc1` (stereo not drawn) [Example 002-161] it was 50 to 100 nM. For `NC(=O)c1cc(F)c(NC2CCCCC2N)nc1Nc1ccc(N2CCOCC2=O)nc1` (stereo not drawn) [Example 002-162], the half-maximal inhibitory concentration (IC50) lay in the range of 100 to 1000 nM.

For the molecule `Cc1cc(Nc2nc(NC3CCCCC3N)c(F)cc2C(N)=O)c(F)cn1` (stereo not drawn) [Example 002-164], the IC50 lay within 50 to 100 nM.

For `NC(=O)c1cc(F)c(NC2CCCCC2N)nc1Nc1cc(N2CCOCC2)ncc1F` (stereo not drawn) [Example 002-166], the half-maximal inhibitory concentration (IC50) fell in the range of 100 to 1000 nM. Then `NC(=O)c1cc(F)c(NC2CCCCC2N)nc1Nc1ccnc(-c2ccccc2)c1F` (stereo not drawn) [Example 002-167], with 10 to 50 nM. In the case of `NC(=O)c1cc(F)c(NC2CCCCC2N)nc1Nc1cc(-c2ccccc2)ncc1F` (stereo not drawn) [Example 002-168] it was 10 to 50 nM. Then `COc1cc(-c2cncc(Nc3nc(NC4CCCCC4N)c(F)cc3C(N)=O)c2)cc(OC)c1OC` (stereo not drawn) [Example 002-171], with 50 to 100 nM; and `NC(=O)c1cc(F)c(NC2CCCCC2N)nc1Nc1cncc(-c2ccc(OC(F)(F)F)cc2)c1` (stereo not drawn) [Example 002-174], with 50 to 100 nM; and `NC(=O)c1cc(F)c(NC2CCCCC2N)nc1Nc1ccnc(-c2ccc3c(c2)OCO3)c1` (stereo not drawn) [Example 002-176], with less than 10 nM.

Turning to `NC(=O)c1cc(F)c(NC2CCCCC2N)nc1Nc1cncc(-c2ccc3c(c2)NC(=O)CO3)c1` (stereo not drawn) [Example 002-177], the IC50 was less than 10 nM. Then `NC(=O)c1cc(F)c(NC2CCCCC2N)nc1Nc1ccnc(-c2ccc3c(c2)NC(=O)CO3)c1` (stereo not drawn) [Example 002-178], with less than 10 nM; and `NC(=O)c1cc(F)c(NC2CCCCC2N)nc1Nc1cncc(-c2cccc3cnccc23)c1` (stereo not drawn) [Example 002-179], with 50 to 100 nM. With `NC(=O)c1cc(F)c(NC2CCCCC2N)nc1Nc1ccnc(-c2cccc3cnccc23)c1` (stereo not drawn) [Example 002-180], the IC50 was in the range of 50 to 100 nM. For the molecule `NC(=O)c1cc(F)c(NC2CCCCC2N)nc1Nc1cncc(-c2cccc3cccnc23)c1` (stereo not drawn) [Example 002-181], the IC50 lay in the range of 50 to 100 nM. In the case of `NC(=O)c1cc(F)c(NC2CCCCC2N)nc1Nc1ccnc(-c2cccc3cccnc23)c1` (stereo not drawn) [Example 002-182] it was 100 to 1000 nM; in that of `COc1cccc(-c2cc(Nc3nc(NC4CCCCC4N)c(F)cc3C(N)=O)ccn2)c1` (stereo not drawn) [Example 002-183], less than 10 nM. Regarding `COc1ccc(-c2cc(Nc3nc(NC4CCCCC4N)c(F)cc3C(N)=O)ccn2)cc1` (stereo not drawn) [Example 002-184], the half-maximal inhibitory concentration (IC50) was less than 10 nM.
